Test results published in patent publication US20250208149A1, “WEE1 COMPOUND FOR TREATING UTERINE SEROUS CARCINOMA” (Recurium IP Holdings, LLC, priority 2022, published 2025).

Experiments:
Type in all cases: cell-based
[1] = system: HEC-59 endometrial cancer cells; experiment: Percent inhibition of cell growth, ZN-c3, LB-100 or ZN-c3+LB-100 after siCTRL or siPPP2R1A (cell titer glow); conditions: 72 hours, ZN-c3 300 nM, LB-100 1 μM
Procedure: (§1) FIG. 20 depicts the percent inhibition of cell growth in HEC-59 endometrial cancer cells after treatment with ZN-c3 alone, the PP2A catalytic inhibitor LB-100 alone, or the combination of ZN-c3+LB-100 after siRNA mediated knockdown of PPP2R1A. […] Percent inhibition is calculated using cell titer glow analysis.
(§2) Various cancer cell lines were treated with ZN-c3 alone, the PP2A catalytic inhibitor LB-100 alone, or the combination of ZN-c3+LB-100. As in Example 1 and Example 2, the treatment period was 72 hours and percent inhibition was calculated using cell titer glow analysis.
The endometrial cancer cell line HEC-59 was assessed for sensitivity to ZN-c3 alone, LB-100 alone, or the combination of ZN-c3+LB-100 following treatment with siCTRL or siPPP2R1A (FIG. 20).

[2] = system: OV17R ovarian cancer cells; experiment: Percent inhibition of cell growth, ZN-c3, LB-100 or ZN-c3+LB-100 (cell titer glow); conditions: 72 h, read-out: percent inhibition of cell growth
Procedure: FIG. 19 depicts the percent inhibition of cell growth in OV17R ovarian cancer cells after treatment with ZN-c3 alone, the PP2A catalytic inhibitor LB-100 alone, or the combination of ZN-c3+LB-100. OV17R has the PPP2R1A missense mutation S256F. Percent inhibition is calculated using cell titer glow analysis.
as §2, with “Following observations that both knockdown and knockout of PPP2R1A could sensitize cancer cells to Zn-C3, the effects of pharmacological inhibition of PPP2R1A with the catalytic inhibitor LB-100 were evaluated. Various” for “Various”
The ovarian cancer cell line OV17R was assessed for sensitivity to ZN-c3 alone, LB-100 alone, or the combination of ZN-c3+LB-100 (FIG. 19).

[3] = system: HEC1B endometrial cancer cells; experiment: Percent inhibition of cell growth, ZN-c3, LB-100 or ZN-c3+LB-100 after siCTRL or siPPP2R1A (cell titer glow); conditions: Homo sapiens, HEC-1B, 72 h, read-out: percent inhibition of cell growth
Procedure: as §1, with “21” for “20”, “HEC1B” for “HEC-59”
as §2, with “Following observations that both knockdown and knockout of PPP2R1A could sensitize cancer cells to Zn-C3, the effects of pharmacological inhibition of PPP2R1A with the catalytic inhibitor LB-100 were evaluated. Various” for “Various”
The endometrial cancer cell line HEC1B was also assessed for sensitivity to ZN-c3 alone, LB-100 alone, or the combination of ZN-c3+LB-100 following treatment with siCTRL or siPPP2R1A (FIG. 21).

[4] = system: HEC-59 endometrial cancer cells; experiment: Percent inhibition of cell growth, ZN-c3, LB-100 or ZN-c3+LB-100 (cell titer glow); conditions: HEC-59 (PPP2R1A wild-type), 72 hours; ZN-c3 400 nM, LB-100 1 μM
Procedure: as §1, with “18” for “20”, “ZN-c3+LB-100. HEC-59 cell line is PPP2R1A wild-type.” for “ZN-c3+LB-100 after siRNA mediated knockdown of PPP2R1A.”
as §2
The endometrial cancer cell line HEC-59 was assessed for sensitivity to ZN-c3 alone, LB-100 alone, or the combination of ZN-c3+LB-100 (FIG. 18).

SMILES: CN1CCN(C(=O)C2C(C(=O)O)[C@H]3CC[C@@H]2O3)CC1 (some centres unmarked) [LB-100, reference compound]
- percent inhibition of cell growth ([1]; HEC-59, siCTRL): approximately half of that value
- percent inhibition in siPPP2R1A treated cells compared to siCTRL treated cells ([1]; HEC-59, siPPP2R1A): only slightly enhanced
- inhibition at 1 µM [2]: ~12%
- inhibition at 1 µM [3]: 25%
- percent inhibition of cell growth [4]: approximately half of that value
